# Source: patent publication US20250179045A1, “LPAR1 ANTAGONISTS AND USES THEREOF” (Contineum Therapeutics, Inc., priority 2021, published 2025)
# Target: human LPA1 (Homo sapiens, UniProt Q92633)
# Assay: In vitro functional assay of lysophosphatidic acid receptor 1 activity (calcium flux)
# Assay type: cell-based
# Details: B103 cells stably expressing human LPA1; Fluo-4 NW calcium flux after lysophosphatidic acid (18:1) at EC80; compounds 100 pM to 10 μM; read-out: LPA1 IC50
# Summary of the method: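 B103 cells stably expressing human LPA1 plated onto compound for 24 h at 37 °C, loaded with Fluo-4 NW dye, re-exposed to compound (30 min 37 °C plus 30 min room temp).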
# human LPA1, sequence (Q92633 whole entry): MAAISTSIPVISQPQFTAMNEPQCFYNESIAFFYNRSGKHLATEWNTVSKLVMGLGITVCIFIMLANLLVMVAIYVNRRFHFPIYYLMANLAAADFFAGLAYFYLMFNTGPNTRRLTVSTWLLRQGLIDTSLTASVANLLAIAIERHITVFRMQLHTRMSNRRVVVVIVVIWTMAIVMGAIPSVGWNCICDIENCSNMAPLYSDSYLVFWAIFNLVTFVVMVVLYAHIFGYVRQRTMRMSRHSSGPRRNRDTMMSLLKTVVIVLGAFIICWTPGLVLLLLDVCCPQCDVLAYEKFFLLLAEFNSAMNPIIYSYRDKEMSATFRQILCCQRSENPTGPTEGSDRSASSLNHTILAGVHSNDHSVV
compound,measurement,value
"COc1ccc(NC(=O)C2(c3ccccc3C(C)C)CCC(C)(O)CC2)c(OC(F)F)n1 (single isomer, unassigned) [Example 83-isomer B, N-(2-(difluoromethoxy)-6-methoxypyridin-3-yl)-4-hydroxy-1-(2-isopropylphenyl)-4-methylcyclohexane-1-carboxamide]",IC50,10 to 100 nM
